This note sets out measurements from patent publication US11591326B2, “Inhibitors of protein arginine methyltransferase 5 (PRMT5), pharmaceutical products thereof, and methods thereof” (PHARMABLOCK SCIENCES (NANJING), INC., priority 2018, dated 2023).

Where two headings read alike, the source gives them in different places.

One data set relates to SNU475. Kind of data set: Liver cancer panel proliferation inhibition, SNU475. It counts as cell-based. The settings on record: Homo sapiens. The method, then: Inhibitory ability of compounds synthesized on the proliferation of three panels of cancer cell lines, including 5 breast cancer, 6 liver cancer, and 3 lung cancer cell lines were evaluated. Exponentially growing cells were seeded in the media of choice at various cell densities in 384-well plates with 20 ul per well and incubated overnight at 37° C., 5% CO2 incubator. Compounds were prepared as 10-point, 3-fold serial dilutions in DMSO, beginning at 6 mM. 1 μl of DMSO solutions from the compound stock plates were added to 99 ul of cell media (final top concentration of compound in the assay was 30 uM and the final concentration of DMSO was 0.5%). 20 μL of compound solutions in media were added to each well of plates with cells seeded. After adding compound solutions, assay plates were incubated for 8 and 12 days, respectively, at 37° C., 5% CO2. During this incubation period, cell media was changed every 4 days. After removing old media from cell plates, 40 ul of media with testing compounds dissolved, which were prepared by adding 1 ul of compound DMSO serial solutions to 199 ul of cell media, were added to the assay plates with the same layout as they were initially prepared. After 8 or 12 days, cell viability was measured using the CellTiter-Glo assay kit from Promega (Madison, Wis., USA) by quantitating the ATP present in the cell cultures. 20 μL of CellTiter-Glo reagent was added to each well of the cell plates. Luminescence was read after 10 minute of incubation with the Envision multiple plate reader from PerkinElmer (Waltham, Mass., USA). The concentrations of compounds inhibiting cell viability by 50% (IC50 values) were determined using a sigmoidal dose-response model (variable slopes, four parameters) in Prism 7 (La Jolla, Calif., USA).

Data set [1] deals with Human recombinant PRMT5 in complex with human recombinant MEP50 (Homo sapiens (Human), UniProt O14744). The data set can be described thus: PRMT5/MEP50 AlphaLISA enzyme inhibitory assay. It counts as biochemical. The settings on record: PRMT5/MEP50 25 nM, SAM 10 μM, Biotin-H4 peptide 30 nM. The essentials:
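Insect-cell-expressed PRMT5/MEP50 (25 nM) preincubated with SAM (10 μM), then 15 min with compound in pH 8.5 Tris buffer, 1% DMSO. Biotin-H4(1–21) peptide (30 nM) reaction ran 120 min at room temperature. H4R3 methylation detected by AlphaLISA; IC50 from four-parameter sigmoidal fit.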
A general note: In Alpha technology, singlet oxygen from a donor bead excites a nearby acceptor bead.

Data set [2] is described as follows: Pharmacokinetic study in rat. It counts as in vivo, Male SD rats. The conditions noted are these: male, SD; for plasma clearance / Vd: 2 mg/kg, Rat PK (IV) 2 mpk; for plasma clearance: read-out: Clint (converted); for Vd / AUC(0-t) / Cmax / Tmax / bioavailability / half-life: plasma; for Vd: read-out: Vss; for AUC(0-t) / Cmax / Tmax / bioavailability / half-life: 10 mg/kg, Rat PK (PO) 10 mpk; for half-life: read-out: T½ (converted). The method, then:
Male SD rats (185-265 g; purchased from Shanghai SLAC laboratory animal CO. LTD; n=18, with 3 per compound) were treated with a single dose of compounds being tested at 2 mg/kg by intravenous tail-vein injection and 10 mg/kg by oral gavage administration, with both doses formulated in 5% DMSO+45% PEG400 in water. Animals upon PO administration were fasted overnight and fed 4 hours after dosing. Animals upon IV administration were free access to food and water. The study was performed in accordance with the guidelines and standards of the Association for Assessment and Accreditation of Laboratory Animal Care (AAALAC International) and the National Institutes of Health.
The animal is restrained manually. Approximately 150 μL whole blood/time point is collected in K2EDTA tube via tail vein. Blood sample will be put on ice and centrifuged at 2000 g for 5 min to obtain plasma sample within 15 minutes. Plasma samples were stored at approximately −70° C. until analysis. An aliquot of 20 μL sample was added with 200 μL IS (Diclofenac, 100 ng/mL) in ACN. The mixture was vortexed for 10 min and centrifuged at 5800 rpm for 10 min. An aliquot of 1 μL supernatant was injected for LC-MS/MS analysis. For 10×-diluted sample, an aliquot of 2 μL sample was added with 18 μL blank plasma. The sample preparation procedure is same with no-diluted sample. Standard calibration curves were constructed by analyzing a series of control plasma aliquots containing Diclofenac (100 ng/mL) as an internal standard and 1.0-3,000 ng/mL testing compounds. Compound concentrations were determined with UPLC-MS/MS-22 (Triple Quad™ 6500).

Another data set has as its system Z-138 tumor cells. Kind of data set: Mantle cell lymphoma (MCL) Z-138 xenograft efficacy study. It counts as in vivo, CB-17 female SCID mice. The conditions noted are these: administered orally BID for 21 days. The method, then: For the in vivo efficacy studies, CB-17 female SCID mice (19-21 g; 10-12 weeks) were purchased from Shanghai SLAC laboratory animal CO. LTD. Each mouse was inoculated subcutaneously at the right flank with Z-138 tumor cells (5×10^6 cells/mouse, 50% Matrigel) in 0.2 mL of a mixture of base media and Matrigel (RPMI:Matrigel, 1:1) for tumor development. The treatments were started when the mean tumor size reached 121.55 mm^3, which was 11 days after inoculation. Mice were assigned into groups using a randomized block design. Testing compounds or vehicle (5% DMSO+45% PEG400+50% H2O) was administered orally BID for 21 days. Body weights were measured three times per week for the whole duration of the study. Tumor size was measured at the same schedule in two dimensions using a caliper, and the volume was expressed in cubic millimeters. Animals were euthanized 6 h after the final dose on day 21, at which time tumors were collected for analysis.

The mark [3] stands for this setting: SNU-475, 192 h, SNU475, 8 days, read-out: IC50 (μM) 8 days.
The mark [4] stands for this setting: SNU-475, 288 h, SNU475, 12 days, read-out: IC50 (μM) 12 days.

Chain of Human recombinant PRMT5 in complex with human recombinant MEP50 (O14744 whole entry): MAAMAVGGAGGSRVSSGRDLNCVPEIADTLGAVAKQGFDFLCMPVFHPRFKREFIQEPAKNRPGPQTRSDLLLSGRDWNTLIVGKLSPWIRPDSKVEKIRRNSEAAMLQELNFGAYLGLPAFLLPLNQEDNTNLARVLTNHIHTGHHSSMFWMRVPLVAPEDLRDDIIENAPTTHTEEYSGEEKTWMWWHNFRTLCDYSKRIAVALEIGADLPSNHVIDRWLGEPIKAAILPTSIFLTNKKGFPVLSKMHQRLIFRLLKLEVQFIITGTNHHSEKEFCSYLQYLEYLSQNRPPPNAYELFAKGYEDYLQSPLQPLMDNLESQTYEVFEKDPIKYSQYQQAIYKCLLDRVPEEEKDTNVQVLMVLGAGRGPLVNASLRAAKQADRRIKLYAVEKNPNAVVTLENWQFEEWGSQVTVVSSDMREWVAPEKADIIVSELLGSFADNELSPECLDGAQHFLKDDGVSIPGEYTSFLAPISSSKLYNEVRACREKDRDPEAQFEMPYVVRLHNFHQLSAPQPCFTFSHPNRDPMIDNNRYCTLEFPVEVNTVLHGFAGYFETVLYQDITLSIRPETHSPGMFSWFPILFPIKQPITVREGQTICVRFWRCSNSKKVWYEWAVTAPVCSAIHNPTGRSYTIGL
Chain of Human recombinant PRMT5 in complex with human recombinant MEP50 (Q9BQA1 whole entry partner): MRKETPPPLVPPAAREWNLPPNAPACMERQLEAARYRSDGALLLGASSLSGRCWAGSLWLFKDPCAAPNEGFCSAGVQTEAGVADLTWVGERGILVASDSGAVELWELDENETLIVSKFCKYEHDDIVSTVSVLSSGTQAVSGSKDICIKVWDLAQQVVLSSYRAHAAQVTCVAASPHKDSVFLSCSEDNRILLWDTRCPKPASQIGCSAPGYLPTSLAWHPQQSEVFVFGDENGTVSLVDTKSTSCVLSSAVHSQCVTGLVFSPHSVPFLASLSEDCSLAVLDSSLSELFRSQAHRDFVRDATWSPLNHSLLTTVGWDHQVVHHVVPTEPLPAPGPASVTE

For orientation: IC50 means the midpoint of a concentration-inhibition curve. Broadly, the AUC(0-t) is exposure summed from dosing to a finite time, without extrapolation to infinity. Low values mean low exposure, high ones high exposure. A word on the Cmax: it is the maximum level reached in the sampled fluid or tissue. For orientation: Tmax means the time from dosing to the highest level. As usually defined, the bioavailability is dose-corrected exposure relative to a reference, in per cent. As to `CC(=O)N1CCC(Nc2ccc3c(c2)C(=O)N(C[C@H](O)CN2CCc4ccccc4C2)CC3)CC1` [Compound 24a, (R)-7-((1-acetylpiperidin-4-yl)amino)-2-(3-(3,4-dihydroisoquinolin-2(1H)-yl)-2-hydroxypropyl)-3,4-dihydroisoquinolin-1(2H)-one], the 50% inhibitory concentration (IC50) in the data set on SNU475 (setting [3]) was found to be 0.21 µM. In addition, in the data set with SNU475 (setting [4]), the half-maximal inhibitory concentration (IC50) was 0.32 µM. In data set [1], the IC50 is 13 nM. Also, in data set [2], the plasma clearance is 31.7 mL/min/kg, the Vd stood at 7.15 ± 2.86 L/kg, the area under the curve AUC(0-t) was 3280 ± 805 ng·h/mL and the peak level (Cmax) was 798 ± 247 ng/mL. In data set [2], the Tmax was 1.17 ± 0.764 h, the bioavailability is 62 ± 15.1% and the half-life is 3.13 ± 0.415 h.
As to `CC(=O)N1CCC(Nc2ccc3c(c2)C(=O)N(C[C@H](O)CN2CCc4ccccc4C2)CCO3)CC1` [Compound 52a, (R)-7-((1-acetylpiperidin-4-yl)amino)-4-(3-(3,4-dihydroisoquinolin-2(1H)-yl)-2-hydroxypropyl)-3,4-dihydrobenzo[f][1,4]oxazepin-5(2H)-one], the concentration for half-maximal inhibition (IC50) in the data set on SNU475 (setting [3]) is 0.29 µM. For the same compound, the half-maximal inhibitory concentration (IC50) in the data set with SNU475 (setting [4]) turned out to be 0.35 µM. For the same compound, the “result in Z-138 xenograft efficacy studies (tumor volume change, FIG. 1)” value in the data set with Z-138 tumor cells was “promising result”. In addition, in data set [1], the concentration for half-maximal inhibition (IC50) was 80 nM. Besides, in data set [2], the plasma clearance was 35.3 mL/min/kg, the Vd is 5.02 ± 0.389 L/kg, the AUC(0-t) came to 2260 ± 764 ng·h/mL and the peak level (Cmax) was 563 ± 233 ng/mL. Also, in data set [2], the Tmax came out at 1.33 ± 0.577 h, the bioavailability worked out at 48.1 ± 16.1% and the half-life is 3.02 ± 0.413 h.
On to `CC(=O)N1CCC(Nc2cc(C(=O)NC[C@H](O)CN3CCc4ccccc4C3)ncn2)CC1` [Compound C3, reference compound], for which the half-inhibitory concentration (IC50) in the data set on SNU475 (setting [3]) came to 0.66 µM. Besides, the half-maximal inhibitory concentration (IC50) in the data set on SNU475 (setting [4]) was 0.86 µM. In addition, in data set [2], the plasma clearance is 35.5 mL/min/kg, the Vd is 2.17 ± 0.0643 L/kg, the AUC(0-t) is 1400 ± 601 ng·h/mL and the peak concentration (Cmax) worked out at 364 ± 82.5 ng/mL. For the same compound, in data set [2], the Tmax amounted to 1.67 ± 0.577 h, the bioavailability came out at 30.5 ± 13% and the half-life was 1.5 ± 0.123 h.
